Measurements as given in PubChem BioAssay AID256 (DTP/NCI, 2004).
“And” between values parts separate entries of the source, which are not always exact repeats. Equal values may be shown once. Toxic doses and inconclusive results are not listed. The calls were made as follows: active = survival T/C of 150% or more; inactive = T/C below 125% in these data.

System: CD2F1 mice, L1210 leukemia ip, survival T/C
Assay: NCI In Vivo Anticancer Drug Screen. Data for tumor model L1210 Leukemia (intraperitoneal) in CD2F1 (CDF1) mice
Settings: endpoint: mean survival time, higher = longer survival
Summary of the method: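 Ratio T/C, where T is the treated-group value and C the vehicle-dosed control value, from mice implanted with a transplantable tumor.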

[1] = dose: 25.0 mg/kg/injection, schedule: Q01DX001 (ip), vehicle: saline with Tween-80
[2] = dose: 50.0 mg/kg/injection, schedule: Q01DX001 (ip), vehicle: saline with Tween-80
[3] = dose: 100.0 mg/kg/injection, schedule: Q01DX001 (ip), vehicle: saline with Tween-80
[4] = dose: 50.0 mg/kg/injection, schedule: Q01DX009 (ip), vehicle: saline with Tween-80
[5] = dose: 100.0 mg/kg/injection, schedule: Q01DX009 (ip), vehicle: saline with Tween-80
[6] = dose: 200.0 mg/kg/injection, schedule: Q01DX001 (ip), vehicle: saline with Tween-80
[7] = dose: 200.0 mg/kg/injection, schedule: Q01DX009 (ip), vehicle: saline with Tween-80
[8] = dose: 400.0 mg/kg/injection, schedule: Q01DX001 (ip), vehicle: saline with Tween-80
[9] = dose: 400.0 mg/kg/injection, schedule: Q01DX009 (ip), vehicle: saline with Tween-80
[10] = dose: 100.0 mg/kg/injection, schedule: Q04DX002 (ip), vehicle: saline with Tween-80
[11] = dose: 200.0 mg/kg/injection, schedule: Q04DX002 (ip), vehicle: saline with Tween-80
[12] = dose: 400.0 mg/kg/injection, schedule: Q04DX002 (ip), vehicle: saline with Tween-80
[13] = dose: 100.0 mg/kg/injection, schedule: Q04DX003 (ip), vehicle: saline with Tween-80
[14] = dose: 200.0 mg/kg/injection, schedule: Q04DX003 (ip), vehicle: saline with Tween-80
[15] = dose: 400.0 mg/kg/injection, schedule: Q04DX003 (ip), vehicle: saline with Tween-80
[16] = dose: 12.5 mg/kg/injection, schedule: Q01DX009 (ip), vehicle: saline with Tween-80
[17] = dose: 25.0 mg/kg/injection, schedule: Q01DX009 (ip), vehicle: saline with Tween-80

Measured: T/C

CC1(C)N=C(N)N=C(N)N1c1ccc(OCCCCNC(=O)Nc2cccc(S(=O)(=O)F)c2)c(Cl)c1
inactive: [1] 105 % of control | [2] 103 % of control | [3] 95 % of control and 97 % of control

CC1/C(=N/O)C(=O)c2ccccc21 (centres undefined)
inactive: [4] 102 % of control | [3] 91 % of control | [5] 86 % of control | [6] 97 % of control

CC(C)(C(O)c1ccccc1)[N+](=O)[O-] (centres undefined)
inactive: [3] 105 % of control | [5] 102 % of control | [6] 102 % of control | [7] 95 % of control | [8] 98 % of control | [9] 96 % of control

CC(C)(C)OOC(=O)c1ccc([N+](=O)[O-])cc1
inactive: [5] 101 % of control | [7] 97 % of control | [9] 101 % of control

CC(C)(C)/[N+]([O-])=N/O
inactive: dose: 75.0 mg/kg/injection, schedule: Q01DX001 (ip), vehicle: saline 101 % of control

OC(COc1ccc(Cl)cc1)COc1ccc(Cl)cc1
inactive: [1] 94 % of control | [2] 94 % of control | [3] 105 % of control

COC(=O)C1=C(O)C(C(=O)OC)C2/C(=[N+](/[O-])O)c3c(cc([N+](=O)[O-])cc3[N+](=O)[O-])C1C2[N+](=O)[O-] (centres undefined)
inactive: [10] 94 % of control | [11] 105 % of control | [12] 90 % of control

O=C(O)/C=C/C(=O)Nc1ccc(N=Nc2ccccc2)cc1
inactive: [13] 93 % of control | [14] 98 % of control

Cc1ncnc2c1ncn2C1OC(CO)C(O)C1O (centres undefined)
inactive: dose: 0.25 mg/kg/injection, schedule: Q01DX005 (ip), vehicle: saline 113 % of control | dose: 0.5 mg/kg/injection, schedule: Q01DX005 (ip), vehicle: saline 112 % of control | dose: 1.0 mg/kg/injection, schedule: Q01DX005 (ip), vehicle: saline 124 % of control | dose: 4.0 mg/kg/injection, schedule: Q01DX005 (ip), vehicle: saline 113 % of control

CC(N)CC(C)N (centres undefined)
inactive: dose: 100.0 mg/kg/injection, schedule: Q04DX002 (ip), vehicle: saline 105 % of control | dose: 200.0 mg/kg/injection, schedule: Q04DX002 (ip), vehicle: saline 109 % of control

Cc1ccc(S(=O)(=O)Nc2cccc3c(NS(=O)(=O)c4ccc(C)cc4)cccc23)cc1
inactive: [13] 96 % of control | [14] 100 % of control | [15] 96 % of control

CC(C)(C)C1(C#N)C(=O)C2CCCCC21 (centres undefined)
inactive: dose: 12.5 mg/kg/injection, schedule: Q04DX002 (ip), vehicle: saline with Tween-80 105 % of control | dose: 25.0 mg/kg/injection, schedule: Q04DX002 (ip), vehicle: saline with Tween-80 97 % of control | dose: 50.0 mg/kg/injection, schedule: Q04DX002 (ip), vehicle: saline with Tween-80 94 % of control

Cc1ccc(OS(=O)(=O)c2ccc(C)cc2)cc1
inactive: [5] 97 % of control | [13] 96 % of control | [7] 100 % of control | [14] 93 % of control | [9] 96 % of control | [15] 98 % of control

C/C=C/CNc1ccccc1
inactive: dose: 50.0 mg/kg/injection, schedule: Q01DX009 (ip), vehicle: saline 102 % of control | dose: 100.0 mg/kg/injection, schedule: Q01DX009 (ip), vehicle: saline 101 % of control | [13] 95 % of control | dose: 200.0 mg/kg/injection, schedule: Q01DX009 (ip), vehicle: saline 96 % of control | [14] 97 % of control

COc1ccc2ccc[n+](C)c2c1
inactive: dose: 6.25 mg/kg/injection, schedule: Q01DX009 (ip), vehicle: saline 94 % of control | dose: 6.25 mg/kg/injection, schedule: Q04DX003 (ip), vehicle: saline with Tween-80 98 % of control | dose: 12.5 mg/kg/injection, schedule: Q01DX009 (ip), vehicle: saline 104 % of control | dose: 12.5 mg/kg/injection, schedule: Q04DX003 (ip), vehicle: saline with Tween-80 101 % of control | dose: 25.0 mg/kg/injection, schedule: Q01DX009 (ip), vehicle: saline 107 % of control | dose: 25.0 mg/kg/injection, schedule: Q04DX003 (ip), vehicle: saline with Tween-80 101 % of control

Cc1ccc(C(=O)CCCCl)cc1C
inactive: [5] 104 % of control | [7] 96 % of control | [9] 98 % of control

c1cc2c3c(cccc3c1)C1C2C2c3cccc4cccc(c34)C12 (centres undefined)
inactive: [3] 93 % of control | [6] 97 % of control | [8] 100 % of control

C/C=C/c1cnc(N)nc1-c1ccccc1
inactive: [10] 101 % of control | [11] 96 % of control | [12] 96 % of control

Cc1[nH]c(=S)[nH]c(=O)c1Cc1c(O)ccc2ccccc12
inactive: dose: 100.0 mg/kg/injection, schedule: Q01DX001 (ip), vehicle: saline 97 % of control | dose: 200.0 mg/kg/injection, schedule: Q01DX001 (ip), vehicle: saline 100 % of control | dose: 400.0 mg/kg/injection, schedule: Q01DX001 (ip), vehicle: saline 103 % of control

ClCC1C(CCl)C2(Cl)C(Cl)=C(Cl)C1(Cl)C2(Cl)Cl (centres undefined)
inactive: [5] 100 % of control | [13] 93 % of control | [7] 98 % of control | [14] 95 % of control | [9] 93 % of control | [15] 93 % of control

COC1C(O)CC(OC2CC(OC3CC(O[C@@H]4C(=O)c5c(cc6cc(OC7CC(OC8CC(O)C(O)C(C)O8)C(O)C(C)O7)c(C)c(O)c6c5O)C[C@H]4[C@H](OC)C(=O)[C@@H](O)[C@@H](C)O)OC(C)C3O)OC(C)C2O)OC1C (some centres undefined)
inactive: dose: 0.09 mg/kg/injection, schedule: Q01DX009 (ip), vehicle: saline 97 % of control | dose: 0.18 mg/kg/injection, schedule: Q01DX009 (ip), vehicle: saline 103 % of control | dose: 0.37 mg/kg/injection, schedule: Q01DX009 (ip), vehicle: saline 111 % of control | dose: 0.75 mg/kg/injection, schedule: Q01DX009 (ip), vehicle: saline 104 % of control | dose: 1.5 mg/kg/injection, schedule: Q01DX009 (ip), vehicle: saline 95 % of control | dose: 375.0 micrograms/kg/injection, schedule: Q01DX009 (ip), vehicle: saline 110 % of control | dose: 750.0 micrograms/kg/injection, schedule: Q01DX009 (ip), vehicle: saline 115 % of control | dose: 1500.0 micrograms/kg/injection, schedule: Q01DX009 (ip), vehicle: saline 109 % of control | dose: 3000.0 micrograms/kg/injection, schedule: Q01DX009 (ip), vehicle: saline 104 % of control

O=C(O)C1=CC=C(c2ccccc2)C(=O)C1
inactive: [16] 100 % of control | [17] 98 % of control | [4] 88 % of control and 90 % of control | [3] 97 % of control | [6] 93 % of control

OC(CN1CCCCC1)c1cccs1 (centres undefined)
inactive: dose: 6.25 mg/kg/injection, schedule: Q01DX009 (ip), vehicle: saline with Tween-80 102 % of control | [16] 98 % of control | [17] 102 % of control
